{
  "source": "PubChem BioAssay AID1963836",
  "about": "(Molecular Pharmacology Branch, DTP, NCI, 2024);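 note: spheroids exposed to compounds for seven days before readout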",
  "test_system": "857933-349-R-J2-PDC complex spheroid viability",
  "assay": "Anticancer human tumor 857933-349-R-J2-PDC patient-derived colon adenocarcinoma cell line growth inhibition [POLQ]",
  "conditions": "for IC50: curve of first compound; for viability, T/C: stronger effect = lower value",
  "in_short": "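Patient-derived tumour cells were co-cultured with HUVEC and mesenchymal stem cells as multicellular spheroids at 37 °C. They were treated with POLQ inhibitors (novobiocin, ART-558, RP6685) alone or combined with other agents. Top concentrations were at or near clinical Cmax (otherwise 10 microM; SN-38 at 1 microM), decreasing in half-log steps.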",
  "key": {"[1]": {"conditions": "second compound 0.0316 µM, first compound 0.000316 µM"}, "[2]": {"conditions": "second compound 0.0316 µM, first compound 0.001 µM"}, "[3]": {"conditions": "second compound 0.0316 µM, first compound 0.00316 µM"}, "[4]": {"conditions": "second compound 0.0316 µM, first compound 0.01 µM"}, "[5]": {"conditions": "second compound 0.0316 µM, first compound 0.0316 µM"}, "[6]": {"conditions": "second compound 0.0316 µM, first compound 0.1 µM"}, "[7]": {"conditions": "second compound 0.1 µM, first compound 0.000316 µM"}, "[8]": {"conditions": "second compound 0.1 µM, first compound 0.001 µM"}, "[9]": {"conditions": "second compound 0.1 µM, first compound 0.00316 µM"}, "[10]": {"conditions": "second compound 0.1 µM, first compound 0.01 µM"}, "[11]": {"conditions": "second compound 0.1 µM, first compound 0.0316 µM"}, "[12]": {"conditions": "second compound 0.1 µM, first compound 0.1 µM"}, "[13]": {"conditions": "second compound 0.316 µM, first compound 0.000316 µM"}, "[14]": {"conditions": "second compound 0.316 µM, first compound 0.001 µM"}, "[15]": {"conditions": "second compound 0.316 µM, first compound 0.00316 µM"}, "[16]": {"conditions": "second compound 0.316 µM, first compound 0.01 µM"}, "[17]": {"conditions": "second compound 0.316 µM, first compound 0.0316 µM"}, "[18]": {"conditions": "second compound 0.316 µM, first compound 0.1 µM"}, "[19]": {"conditions": "second compound 1 µM, first compound 0.000316 µM"}, "[20]": {"conditions": "second compound 1 µM, first compound 0.001 µM"}, "[21]": {"conditions": "second compound 1 µM, first compound 0.00316 µM"}, "[22]": {"conditions": "second compound 1 µM, first compound 0.01 µM"}, "[23]": {"conditions": "second compound 1 µM, first compound 0.0316 µM"}, "[24]": {"conditions": "second compound 1 µM, first compound 0.1 µM"}, "[25]": {"conditions": "second compound 3.16 µM, first compound 0.000316 µM"}, "[26]": {"conditions": "second compound 3.16 µM, first compound 0.001 µM"}, "[27]": {"conditions": "second compound 3.16 µM, first compound 0.00316 µM"}, "[28]": {"conditions": "second compound 3.16 µM, first compound 0.01 µM"}, "[29]": {"conditions": "second compound 3.16 µM, first compound 0.0316 µM"}, "[30]": {"conditions": "second compound 3.16 µM, first compound 0.1 µM"}, "[31]": {"conditions": "second compound 10 µM, first compound 0.000316 µM"}, "[32]": {"conditions": "second compound 10 µM, first compound 0.001 µM"}, "[33]": {"conditions": "second compound 10 µM, first compound 0.00316 µM"}, "[34]": {"conditions": "second compound 10 µM, first compound 0.01 µM"}, "[35]": {"conditions": "second compound 10 µM, first compound 0.0316 µM"}, "[36]": {"conditions": "second compound 10 µM, first compound 0.1 µM"}},
  "data": [
    {"smiles": "CC[C@@]1(O)C(=O)OCc2c1cc1n(c2=O)Cc2cc3c(CN(C)C)c(O)ccc3nc2-1", "note": "+ Cc1cccc(N(C)C(=O)C2C(O)CCN2c2nc(C)cc(C(F)(F)F)c2C#N)c1", "values": [
      {"measurement": "IC50", "setting": "second compound 0.0316 µM", "result": 65.2, "unit": "nM"},
      {"measurement": "IC50", "setting": "second compound 0.1 µM", "result": 99.9, "unit": "nM"},
      {"measurement": "IC50", "setting": "second compound 0.316 µM", "result": 69.5, "unit": "nM"},
      {"measurement": "IC50", "setting": "second compound 1 µM", "result": 72.2, "unit": "nM"},
      {"measurement": "IC50", "setting": "second compound 3.16 µM", "result": 97.4, "unit": "nM"},
      {"measurement": "IC50", "setting": "second compound 10 µM", "result": 18.9, "unit": "nM"},
      {"measurement": "viability, T/C", "setting": "[1]", "result": 98.7, "unit": "%"},
      {"measurement": "viability, T/C", "setting": "[2]", "result": 102, "unit": "%"},
      {"measurement": "viability, T/C", "setting": "[3]", "result": 92.8, "unit": "%"},
      {"measurement": "viability, T/C", "setting": "[4]", "result": 80.6, "unit": "%"},
      {"measurement": "viability, T/C", "setting": "[5]", "result": 61.8, "unit": "%"},
      {"measurement": "viability, T/C", "setting": "[6]", "result": 43.1, "unit": "%"},
      {"measurement": "viability, T/C", "setting": "[7]", "result": 106, "unit": "%"},
      {"measurement": "viability, T/C", "setting": "[8]", "result": 94.5, "unit": "%"},
      {"measurement": "viability, T/C", "setting": "[9]", "result": 88.4, "unit": "%"},
      {"measurement": "viability, T/C", "setting": "[10]", "result": 92.3, "unit": "%"},
      {"measurement": "viability, T/C", "setting": "[11]", "result": 73.6, "unit": "%"},
      {"measurement": "viability, T/C", "setting": "[12]", "result": 49.3, "unit": "%"},
      {"measurement": "viability, T/C", "setting": "[13]", "result": 76.4, "unit": "%"},
      {"measurement": "viability, T/C", "setting": "[14]", "result": 108, "unit": "%"},
      {"measurement": "viability, T/C", "setting": "[15]", "result": 91.4, "unit": "%"},
      {"measurement": "viability, T/C", "setting": "[16]", "result": 78, "unit": "%"},
      {"measurement": "viability, T/C", "setting": "[17]", "result": 76.2, "unit": "%"},
      {"measurement": "viability, T/C", "setting": "[18]", "result": 38.7, "unit": "%"},
      {"measurement": "viability, T/C", "setting": "[19]", "result": 98.8, "unit": "%"},
      {"measurement": "viability, T/C", "setting": "[20]", "result": 75.8, "unit": "%"},
      {"measurement": "viability, T/C", "setting": "[21]", "result": 83.8, "unit": "%"},
      {"measurement": "viability, T/C", "setting": "[22]", "result": 73.4, "unit": "%"},
      {"measurement": "viability, T/C", "setting": "[23]", "result": 76.6, "unit": "%"},
      {"measurement": "viability, T/C", "setting": "[24]", "result": 40.7, "unit": "%"},
      {"measurement": "viability, T/C", "setting": "[25]", "result": 95.7, "unit": "%"},
      {"measurement": "viability, T/C", "setting": "[26]", "result": 79.3, "unit": "%"},
      {"measurement": "viability, T/C", "setting": "[27]", "result": 77.9, "unit": "%"},
      {"measurement": "viability, T/C", "setting": "[28]", "result": 74.1, "unit": "%"},
      {"measurement": "viability, T/C", "setting": "[29]", "result": 69.4, "unit": "%"},
      {"measurement": "viability, T/C", "setting": "[30]", "result": 46, "unit": "%"},
      {"measurement": "viability, T/C", "setting": "[31]", "result": 77.9, "unit": "%"},
      {"measurement": "viability, T/C", "setting": "[32]", "result": 92.3, "unit": "%"},
      {"measurement": "viability, T/C", "setting": "[33]", "result": 85.2, "unit": "%"},
      {"measurement": "viability, T/C", "setting": "[34]", "result": 56.6, "unit": "%"},
      {"measurement": "viability, T/C", "setting": "[35]", "result": 50.6, "unit": "%"},
      {"measurement": "viability, T/C", "setting": "[36]", "result": 37.9, "unit": "%"}
    ]},
    {"smiles": "CC[C@@]1(O)C(=O)OCc2c1cc1n(c2=O)Cc2cc3c(CN(C)C)c(O)ccc3nc2-1", "note": "+ Nc1ccc(C#CCN(C(=O)Cc2ncc(C(F)(F)F)cc2C(F)(F)F)c2ccc(F)cc2)nn1", "values": [
      {"measurement": "IC50", "setting": "second compound 0.0316 µM", "result": 71.7, "unit": "nM"},
      {"measurement": "IC50", "setting": "second compound 0.1 µM", "result": "> 100", "unit": "nM"},
      {"measurement": "IC50", "setting": "second compound 0.316 µM", "result": 77.3, "unit": "nM"},
      {"measurement": "IC50", "setting": "second compound 1 µM", "result": 86.9, "unit": "nM"},
      {"measurement": "IC50", "setting": "second compound 3.16 µM", "result": 63.8, "unit": "nM"},
      {"measurement": "IC50", "setting": "second compound 10 µM", "result": 51.9, "unit": "nM"},
      {"measurement": "viability, T/C", "setting": "[1]", "result": 89.2, "unit": "%"},
      {"measurement": "viability, T/C", "setting": "[2]", "result": 103, "unit": "%"},
      {"measurement": "viability, T/C", "setting": "[3]", "result": 88.6, "unit": "%"},
      {"measurement": "viability, T/C", "setting": "[4]", "result": 70.7, "unit": "%"},
      {"measurement": "viability, T/C", "setting": "[5]", "result": 66.2, "unit": "%"},
      {"measurement": "viability, T/C", "setting": "[6]", "result": 44, "unit": "%"},
      {"measurement": "viability, T/C", "setting": "[7]", "result": 98.9, "unit": "%"},
      {"measurement": "viability, T/C", "setting": "[8]", "result": 95.7, "unit": "%"},
      {"measurement": "viability, T/C", "setting": "[9]", "result": 94.8, "unit": "%"},
      {"measurement": "viability, T/C", "setting": "[10]", "result": 82.3, "unit": "%"},
      {"measurement": "viability, T/C", "setting": "[11]", "result": 71, "unit": "%"},
      {"measurement": "viability, T/C", "setting": "[12]", "result": 50.6, "unit": "%"},
      {"measurement": "viability, T/C", "setting": "[13]", "result": 107, "unit": "%"},
      {"measurement": "viability, T/C", "setting": "[14]", "result": 121, "unit": "%"},
      {"measurement": "viability, T/C", "setting": "[15]", "result": 87.5, "unit": "%"},
      {"measurement": "viability, T/C", "setting": "[16]", "result": 87, "unit": "%"},
      {"measurement": "viability, T/C", "setting": "[17]", "result": 73.3, "unit": "%"},
      {"measurement": "viability, T/C", "setting": "[18]", "result": 43, "unit": "%"},
      {"measurement": "viability, T/C", "setting": "[19]", "result": 99.5, "unit": "%"},
      {"measurement": "viability, T/C", "setting": "[20]", "result": 100, "unit": "%"},
      {"measurement": "viability, T/C", "setting": "[21]", "result": 97.2, "unit": "%"},
      {"measurement": "viability, T/C", "setting": "[22]", "result": 94.4, "unit": "%"},
      {"measurement": "viability, T/C", "setting": "[23]", "result": 74, "unit": "%"},
      {"measurement": "viability, T/C", "setting": "[24]", "result": 46.7, "unit": "%"},
      {"measurement": "viability, T/C", "setting": "[25]", "result": 92.6, "unit": "%"},
      {"measurement": "viability, T/C", "setting": "[26]", "result": 96, "unit": "%"},
      {"measurement": "viability, T/C", "setting": "[27]", "result": 92.1, "unit": "%"},
      {"measurement": "viability, T/C", "setting": "[28]", "result": 76.6, "unit": "%"},
      {"measurement": "viability, T/C", "setting": "[29]", "result": 61.8, "unit": "%"},
      {"measurement": "viability, T/C", "setting": "[30]", "result": 42.9, "unit": "%"},
      {"measurement": "viability, T/C", "setting": "[31]", "result": 75.2, "unit": "%"},
      {"measurement": "viability, T/C", "setting": "[32]", "result": 86.1, "unit": "%"},
      {"measurement": "viability, T/C", "setting": "[33]", "result": 92.5, "unit": "%"},
      {"measurement": "viability, T/C", "setting": "[34]", "result": 76.6, "unit": "%"},
      {"measurement": "viability, T/C", "setting": "[35]", "result": 61.3, "unit": "%"},
      {"measurement": "viability, T/C", "setting": "[36]", "result": 35.6, "unit": "%"}
    ]}
  ]
}
